Assay results published in patent US20130189764A1, “SELECTIVE GROWTH MEDIA” (Oxide Limited, priority 2000, published 2013).
Converted amounts (≈) assume the structure as drawn.

Key:
[1] = system: Bacillus subtilis strain OCC 214; experiment: growth on nutrient agar streak plates, pure culture (Example 1); format: cell-based; conditions: B. subtilis OCC214, nutrient agar, 0-10 mM tested
From the text: In example 1 the sensitivity of Bacillus subtilis strain OCC 214 to alaphosphin or AEP was investigated. […] The organism is known to be LALA-ve, so the observations agree with the known characteristics of the organism.

[2] = system: Enterococcus faecalis OCC 640; experiment: growth on nutrient agar streak plates, pure culture (Example 3); format: cell-based; conditions: E. faecalis OCC 640, nutrient agar, 0-10 mM tested
From the text: Example 1 was repeated using Enterococcus faecalis OCC 640 as the test organism.

[3] = system: Klebsiella pneumoniae CMCC 3077; experiment: growth on nutrient agar streak plates, pure culture (Example 4); format: cell-based; conditions: K. pneumoniae CMCC 3077, nutrient agar, 0-10 mM tested
From the text: Example 1 was repeated using Klebsiella pneumoniae CMCC 3077 as the test organism. The results are shown in FIG. 5, and are qualitatively similar to those obtained in example 2.

[4] = system: Staphylococcus aureus OCC 102; experiment: growth on nutrient agar streak plates, pure culture (Example 5); format: cell-based; conditions: S. aureus OCC 102, nutrient agar, 0-10 mM tested
From the text: Example 1 was repeated using Staphylococcus aureus OCC 102 as the test organism.

B. subtilis OCC 214 = experiment: growth on nutrient agar, mixed culture with K. pneumoniae (Example 8); format: cell-based, Bacillus subtilis
From the text: Example 6 was repeated, this time using a mixed culture of B. subtilis OCC 214 and K. pneumoniae CMCC 3077, in the presence of AEP or alaphosphin. The empty columns show the growth of B. subtilis, the shaded columns denote growth of K. pneumoniae.

[5] = system: Klebsiella pneumoniae CMCC3077; experiment: total viable count in Nutrient Broth (Example 10); format: cell-based; conditions: 5 mM in Nutrient Broth, within a 4 hour period
Experimental: Growth curve data on the activity of alaphosphin towards Klebsiella spp. was generated. Particular attention was paid to measuring the kinetics of inhibition in broth culture. The media used in this work were Buffered Peptone Water, Nutrient Broth and Tryptone Soya Agar. The media were prepared according to the manufacturer's instructions.
The selective agents, AEP (Cat. No. 06655) and alaphosphin (Cat. No. 05260), were supplied by Fluka. They were dissolved in water at 0.5M concentration, filter-sterilised, and 100 μl added to 10 ml of Nutrient Broth to give a final concentration in the test medium of 5 mM of AEP or alaphosphin respectively.
Klebsiella pneumnoniae CMCC3077 was chosen, as it is a food isolate and work had been carried out previously on this organism using alaphosphin and AEP (see preceding examples). The organism was inoculated into Nutrient Broth and incubated overnight at 37° C. […] The test media were incubated at 37° C., and sampled at hourly intervals. The cultures were serially diluted in Buffered Peptone Water and inoculated onto Tryptone Soya Agar. These plates were incubated overnight at 37° C. and the total viable count made the next day.
Typical results are shown in FIG. 15 which is a graph of total viable count (log10 cfu/ml) against time (hours).

[6] = system: S. indiana OCC 2412 and S. worthington OCC 634; experiment: Bioscreen growth in Lab-Lemco broth (Example 11), Salmonella strains; format: cell-based; conditions: 64 μg/ml, Lab-Lemco broth pH 5.7, 37° C.
Experimental: Thus, Ala-AEP was dissolved in deionised water (7.0 mg/ml), filter sterilised, and an amount of the solution added to autoclaved Lab-Lemco broth (20 g/l; pH 5.7) to give a concentration of 70 μg/ml. Volumes (300 μl) of this solution were then pipetted into the wells of Bioscreen microtitre plates and 30 μl quantities of 1 in 10,000 dilutions of overnight cultures added (reducing the final alaphosphin concentration to 64 μg/m). Plates were then covered, incubated at 37° C., and the opacity of the organism suspensions measured using a Bioscreen instrument. Growth of the Salmonella strains was unaffected whereas the E. coli strains were all inhibited.
Typical results are shown in FIG. 16, which is a graph of Optical Density against time (hours). Growth of S. indiana OCC 2412 and S. worthington OCC 634 is denoted by crosses and circles respectively.

E. coli OCC 2129 = experiment: Bioscreen growth, comparison with conventional selective agents (Example 12); format: cell-based, Escherichia coli; conditions: 60 μg/ml alaphosphin
Experimental: The following is an example to illustrate the beneficial lower toxic properties of the new selective agents towards the target microorganism, in this case Salmonella. Two selective agents, cefsulodin and novobiocin, as used conventionally in Salmonella isolation from foods (Humphrey and Whitehead, 1992 British Poultry Science 33, 761-768) were compared with alaphosphin. All were dissolved in deionised water, filter sterilised, and an amount of the solution added to either autoclaved Lab-Lemco broth+phosphate buffer (20 g/l; pH 6.0; ala-AEP) or Buffered Peptone Water (pH 6.8; cefsulodin and novobiocin) to give final concentrations of 66, 16.5 and 11 μg/ml respectively. [The different pH values reflect the different pH optima of the selective agents (ala-AEP was also subsequently used in BPW at pH 6.8 and similar results obtained)]. Volumes (300 μl) were then pipetted into the wells of Bioscreen microtitre plates and 30 μl quantities of 1 in 10,000 dilutions of overnight cultures of E. coli OCC 2129 and Salmonella typhimurium OCC 722, added. Plates were then covered, incubated at 37° C., and the opacity of the organism suspensions measured using a Bioscreen instrument.
Typical results are shown in FIGS. 17-19, which are graphs of optical density against time for S. typhimurium (circles) and E. coli (squares) in the presence (empty symbols) or absence (filled symbols) of 15 μg/ml cefsulodin (FIG. 17), 10 μg/ml novobiocin (FIG. 18) or 60 μg/ml alaphosphin (FIG. 19).

Citrobacter freundii 370 = experiment: MIC in DMSal medium (Example 17); format: cell-based; conditions: Citrobacter freundii, 370
[7] = system: Enterobacter sakazakii 1888; experiment: MIC in DMSal medium (Example 17); format: cell-based; conditions: Cronobacter sakazakii, 1888
E. coli 607 = experiment: MIC in DMSal medium (Example 17); format: cell-based; conditions: Escherichia coli, 607
[8] = system: Salmonella typhimurium 722; experiment: MIC in DMSal medium (Example 17); format: cell-based; conditions: Salmonella enterica, TYPHIMURIUM
Experimental: Isoleucyl-AEP and sarcosyl-alanyl-AEP were compared to ala-AEP (all in DMSal medium) for the ability to selectively recover two clinically important pathogenic bacteria: Salmonella and Staphylococcus aureus.
For selective growth of Salmonella inhibition of Citrobacter, Enterobacter sakazakii and E. coli is important. […] Sarcosyl-alanyl-AEP used at a concentration of 1.0 μg/ml is sufficient to inhibit the growth of all three undesired bacteria while having no effect on growth of Salmonella typhimurium. […] Alternatively, a concentration of 2.0 μg/ml of isoleucyl-AEP is required to inhibit the growth of Citrobacter, Enterobacter sakazakii and E. coli and this concentration has no effect on the Salmonella typhimurium strain tested.

[9] = system: Enterococcus faecalis 640; experiment: MIC in DMSal medium (Example 17); format: cell-based; conditions: Enterococcus faecalis, 640

C[C@H](N)C(=O)N[C@@H](C)P(=O)(O)O [alaphosphin, L-alanyl-L-1-aminoethylphosphonic acid]
sensitivity of growth (in words) [1]: completely insensitive | concentration at which growth is completely inhibited [2]: ≥ 2 mM | concentration at which growth is completely inhibited [3]: ≥ 2 mM | concentration at which growth is completely inhibited [4]: 10 mM | sensitivity of growth (in words) (B. subtilis OCC 214): insensitive | reduction in the viable count [5]: two to three log reduction | growth (optical density) in presence of the agent [6]: unaffected | growth of E. coli (E. coli OCC 2129): completely inhibited | MIC (Citrobacter freundii 370): 1 µg/mL (≈ 5.1 µM) | MIC [7]: 0.075 µg/mL (≈ 0.382 µM) | MIC (E. coli 607): 0.1 µg/mL (≈ 0.51 µM) | MIC [8]: 2 µg/mL (≈ 10.2 µM) | MIC [9]: 10 µg/mL (≈ 51 µM)
